Test results from US10280179B2, “Spiroquinoxaline derivatives as inhibitors of non-apoptotic regulated cell-death” (Helmholtz Zentrum Munchen—Deutches Forschungszentrum Fur …, priority 2013, dated 2019).
Read-outs that look alike come from different tables or passages of the source.

Experiments:
Assay type in all cases: cell-based
[1] = tested on: human neuroblastoma cell line SH-SY5Y; test: Inhibition of BSO-induced non-apoptotic cell death (Example B.1); settings: SH-SY5Y cells, 72 hours
From the text: Inhibition of BSO-Induced Non-Apoptotic Cell Death by Compounds Disclosed Herein
L-Buthionine sulfoximine (BSO) is a well-known glutathione (GSH) depletory, which inhibits gamma-glutamyl-cysteine-synthetase, the enzyme catalyzing the rate-limiting step in GSH biosynthesis. The human neuroblastoma cell line SH-SY5Y is sensitive to BSO-induced intracellular glutathione depletion, which causes high levels of reactive oxygen species (ROS) and cellular stress mimicking cellular conditions following ischemia (cf., e.g., Yamada et al., Neurochem. Int. 59:1003-9 (2011)).
Compounds disclosed herein were evaluated for their ability to promote cell survival upon administration of a lethal dose of BSO to cell-culture medium. Briefly, SH-SY5Y cells (ATCC® CRL-2266™) were propagated in DMEM supplemented with 10% FBS/1% Penicillin-Streptomycin, and then seeded onto 96-well plates at a concentration of 750 cells/well in 100 μL of media, to which BSO (Sigma Aldrich) was added (to a final concentration of 50 μM) together with increasing concentrations of the compound to be tested, and the plates incubated at 37° C./5% CO2 for 72 hours. Compound dilutions (0.5 pM to 100 μM) were prepared from 10 mM stocks dissolved in DMSO and diluted in media. Cells treated with BSO alone were used as negative control and alpha-Tocopherol (Sigma Aldrich) was used as positive control. Compound concentrations were tested in triplicate. After incubation, cell survival was detected using the live/dead cell assay AquaBluer™ (MultiTarget Pharmaceuticals) and quantified using a fluorescence plate reader (excitation filter: 530-560 nm/emission filter: 590 nm) (SpectraMax M4; Molecular Devices). Fluorescence data so obtained was normalised to the percentage of surviving cells and IC50 values calculated using the GraphPad Prism (GraphPad Software, Inc) software package.

[2] = tested on: mouse hippocampal cell line (Ht22); test: Inhibition of glutamate-induced non-apoptotic cell death (Example B.2); settings: HT-22, Ht22 cells
From the text: Inhibition of Glutamate-Induced Non-Apoptotic Cell Death by Compounds of the Present Invention
Glutamate toxicity is conferred on cells from the mouse hippocampal cell line (Ht22) by inhibition of the cysteine/glutamate antiporter, System xc-, leading to impaired cysteine uptake and subsequent GSH depletion. This model is frequently used for mimicking glutathione depletion following oxidative stress in stroke, brain trauma and other neurodegenerative diseases and cellular conditions following ischemia (for example: van Leyen et al, J. Neurochem. 92:824-30 (2005)).
Compounds disclosed herein were evaluated for their ability to promote cell survival upon administration of a lethal dose of glutamate (GLU) to the cell-culture medium.
Briefly, Ht22 cells (ATCC) were propagated DMEM supplemented with 10% FBS/1% Penicillin-Streptomycin, and then seeded onto 96-well plates at a concentration of 2,000 cells/well in 100 μL of MEDIA, simultaneously with glutamate (Sigma Aldrich) to a final concentration of 5 mM, together with increasing concentrations of the compound to be tested (0.5 pM to 100 μM), and the plates incubated at 37° C./5% CO2 for 72 hours. Compound dilutions were prepared from 10 mM stocks dissolved in DMSO and diluted in media. Cells treated with glutamate alone were used as negative control and alpha-tocopherol (Sigma Aldrich) was used as positive control. Compound concentrations were tested in triplicate. After incubation, cell survival was detected and quantified as described in Example B.1.

Pfa1 cells = test: Inhibition of non-apoptotic cell death after tamoxifen-induced GPx4 knockout in a recombinant cell line (Example B.4); settings: Mus musculus, read-out: Pfa1/TAM IC50
From the text: Inhibition of Non-Apoptotic Cell-Death by Compounds Disclosed Herein Using a Recombinant Cell Line
To combat high intracellular ROS levels, mammalian cells have evolved an intricate network of ROS scavenging in cells, in which the thioredoxin and glutathione (GSH) dependent systems prevail. […] Knockout of GPx4 in neurons causes massive neurodegeneration in cortical, cerebellar and hippocampal neurons underscoring the high relevance of ROS-induced cell death signaling in the brain. Briefly, immortalised fibroblasts from these mice were made to contain tamoxifen-inducible CreERT2, which catalyzes the functional ablation of both copies of GPx4 and resulting in a complete knockout of GPx4, a massive ROS burst, and cell death in cell culture. These cells (Pfa1 cells) were used to characterize compounds of the present invention, whereby tamoxifen (TAM) was given on day 0 along with the compound under test, and 72 hours later cell survival was evaluated using AlamarBlue.

[3] = Cellular toxicity, same assay as Example B.4 without TAM (Example B.5); settings: mouse; Pfa1 cells without TAM; read-out: TC50 (the source's name)
From the text: Cellular Toxicity of Compounds of the Invention
An estimate of the toxicity for compounds of the invention was obtained by using the same assay as described in Example B.4, but without the addition of TAM. […] Such TC50 values obtained for certain compounds disclosed herein, together with an approximate therapeutic window (estimated by dividing each TC50 by the corresponding IC50 determined from example B.4) are shown in Table 3.

[4] = 50 μM BSO, read-out: SH-SY5Y/BSO IC50
[5] = glutamate-induced cell death, read-out: Ht22/GLU

SMILES | IC50 [1, 4] | IC50 [2, 5] | IC50 (Pfa1 cells) | CC50 [3] | IC50 ([1]; BSO 50 μM, cell survival (AquaBluer), read-out: SH-SY5Y/BSO (Example B.1) IC50) | IC50 ([2]; glutamate 5 mM, 72 hours, cell survival, read-out: Ht22/GLU (Example B.2) IC50)
Cc1cccc(CNC2=Nc3cc(Cl)c(Cl)cc3NC23CCCCCC3)c1 [C-267] | < 100 nM | < 500 nM | < 200 nM | 10000 to 20000 nM | – | –
FC(F)(F)c1cccc(CNC2=Nc3cc(Cl)c(Cl)cc3NC23CCNCC3)c1 [N-260] | < 20 nM | < 50 nM | < 20 nM | 500 to 1000 nM | – | –
c1ccc(C(CNC2=Nc3ccccc3NC23CCNCC3)c2ccccc2)cc1 [N-220] | < 50 nM | < 20 nM | < 50 nM | 2000 to 5000 nM | – | –
Cc1cccc(CNC2=Nc3cc(Cl)c(Cl)cc3NC23CCOCC3)c1 [O/S-342] | < 100 nM | < 500 nM | < 50 nM | 20000 to 50000 nM | – | –
NC1CCC2(CC1)Nc1ccccc1N=C2NCc1ccccc1 (centres unmarked) [C-257] | < 100 nM | < 500 nM | < 200 nM | 2000 to 5000 nM | – | –
FC(F)(F)c1cccc(CNC2=Nc3cc(Cl)c(Cl)cc3NC23CCCCCC3)c1 [C-260] | < 50 nM | < 500 nM | < 200 nM | 5000 to 10000 nM | – | –
Cc1cc2c(cc1C)NC1(CCSCC1)C(NCc1ccccc1)=N2 [O/S-369] | < 50 nM | < 200 nM | < 100 nM | 10000 to 20000 nM | – | –
Clc1ccccc1CNC1=Nc2ccccc2NC12CCOCC2 [O/S-1] | < 500 nM | < 1000 nM | < 1000 nM | 50000 to 100000 nM | – | –
Clc1ccc(CNC2=Nc3cc(Cl)c(Cl)cc3NC23CCNCC3)cc1Cl [N-258] | < 20 nM | < 50 nM | < 100 nM | 100 to 200 nM | – | –
c1ccc(CNC2=Nc3ccccc3NC23CCOCC3)cc1 [O/S-337] | < 500 nM | < 5000 nM | < 5000 nM | 50000 to 100000 nM | – | –
Fc1ccc(CNC2=Nc3cc(Cl)c(Cl)cc3NC23CCCCC3)c(F)c1 [C-265] | < 50 nM | < 500 nM | < 500 nM | 10000 to 20000 nM | – | –
c1ccc(CNC2=Nc3ccccc3NC23CCCCC3)cc1 [C-215] | < 200 nM | < 1000 nM | < 1000 nM | 20000 to 50000 nM | – | –
Cc1cc2c(cc1C)NC1(CCCCCC1)C(NCc1cccc(Cl)c1)=N2 [C-255] | < 50 nM | < 200 nM | < 200 nM | 5000 to 10000 nM | – | –
CC1CCC2(CC1)Nc1ccccc1N=C2NCc1ccccc1 (centres unmarked) [C-252] | < 200 nM | < 1000 nM | < 1000 nM | 10000 to 20000 nM | – | –
Cc1cc2c(cc1C)NC1(CCOCC1)C(NCc1ccccc1)=N2 [O/S-340] | < 200 nM | < 500 nM | < 500 nM | 20000 to 50000 nM | – | –
FC(F)(F)c1ccc2c(c1)N=C(NCc1ccccc1)C1(CCCCC1)N2 [C-259] | < 100 nM | < 500 nM | < 500 nM | 5000 to 10000 nM | – | –
Clc1cccc(CNC2=Nc3ccccc3NC23CCOCC3)c1 [O/S-2] | < 200 nM | < 1000 nM | < 500 nM | 20000 to 50000 nM | – | –
FC(F)(F)c1cccc(CNC2=Nc3ccccc3NC23CCNCC3)c1 [N-23] | < 20 nM | < 50 nM | < 50 nM | 20000 to 50000 nM | – | –
CN1CCC2(CC1)Nc1ccccc1N=C2NCc1cccc(Cl)c1 [N-90] | < 50 nM | < 200 nM | < 20 nM | 10000 to 20000 nM | – | –
Fc1cc2c(cc1F)NC1(CCNCC1)C(NCc1cccc(Cl)c1)=N2 [N-117] | < 10 nM | < 50 nM | < 50 nM | 1000 to 2000 nM | – | –

SMILES | IC50 [1, 4] | IC50 [2, 5] | IC50 (Pfa1 cells) | CC50 [3] | IC50 ([1]; BSO 50 μM, cell survival (AquaBluer), read-out: SH-SY5Y/BSO (Example B.1) IC50) | IC50 ([2]; glutamate 5 mM, 72 hours, cell survival, read-out: Ht22/GLU (Example B.2) IC50)
Cc1cc2c(cc1C)NC1(CCNCC1)C(NCc1cccc(F)c1)=N2 [N-257] | < 20 nM | < 100 nM | < 100 nM | 1000 to 2000 nM | – | –
Cc1cc2c(cc1C)NC1(CCNCC1)C(NCc1cccc(C(F)(F)F)c1)=N2 [N-251] | < 10 nM | < 50 nM | < 100 nM | 500 to 1000 nM | – | –
Clc1cc2c(cc1Cl)NC1(CCNCC1)C(NCc1ccccc1)=N2 [N-205] | < 20 nM | < 50 nM | < 10 nM | 1000 to 2000 nM | – | –
Cc1ccccc1CNC1=Nc2ccccc2NC12CCNCC2 [N-10] | < 20 nM | < 50 nM | < 100 nM | 5000 to 10000 nM | ~5 nM | 10 to 50 nM
Fc1cc2c(cc1F)NC1(CCNCC1)C(NCc1ccccc1Cl)=N2 [N-259] | < 10 nM | < 50 nM | < 50 nM | 1000 to 2000 nM | – | –
CC(=O)NC1CCC2(CC1)Nc1ccccc1N=C2NCc1ccccc1 (centres unmarked) [C-249] | < 1000 nM | < 5000 nM | < 5000 nM | 50000 to 100000 nM | – | –
Cc1cc(C)cc(CNC2=Nc3ccccc3NC23CCNCC3)c1 [N-217] | < 50 nM | < 50 nM | < 100 nM | 20000 to 50000 nM | – | –
Fc1cccc(F)c1CNC1=Nc2ccccc2NC12CCCCCC2 [C-266] | < 100 nM | < 500 nM | < 500 nM | 10000 to 20000 nM | – | –
Cc1cc(C)cc(CNC2=Nc3cc(C)c(C)cc3NC23CCNCC3)c1 [N-262] | < 20 nM | < 50 nM | < 50 nM | 500 to 1000 nM | – | –
c1ccc(CCNC2=Nc3ccccc3NC23CCSCC3)cc1 [O/S-368] | < 2000 nM | < 2000 nM | < 5000 nM | 20000 to 50000 nM | – | –
Clc1cccc(CNC2=Nc3ccccc3NC23CCSCC3)c1 [O/S-168] | < 100 nM | < 500 nM | < 200 nM | 20000 to 50000 nM | – | –
FC1(F)Oc2cc3c(cc2O1)NC1(CCOCC1)C(NCc1ccccc1)=N3 [O/S-366] | < 50 nM | < 100 nM | < 100 nM | 20000 to 50000 nM | – | –
CC1CC2(CCN1)Nc1ccccc1N=C2NCc1ccccc1 (centres unmarked) [N-240] | < 100 nM | < 500 nM | < 500 nM | 10000 to 20000 nM | – | –
CC(NC1=Nc2ccccc2NC12CCSCC2)c1ccccc1 (centres unmarked) [O/S-367] | < 200 nM | < 500 nM | < 1000 nM | 20000 to 50000 nM | – | –
FC(F)(F)c1cccc(CNC2=Nc3ccccc3NC23CCCCCC3)c1 [C-261] | < 50 nM | < 500 nM | < 500 nM | 10000 to 20000 nM | – | –
c1ccc(CNC2=Nc3ccccc3NC23CCCCCC3)cc1 [C-214] | < 500 nM | < 1000 nM | < 500 nM | 10000 to 20000 nM | – | –
Clc1ccccc1CNC1=Nc2ccccc2NC12CCCCC2 [C-1] | < 500 nM | < 1000 nM | < 500 nM | 20000 to 50000 nM | – | –
Clc1cc2c(cc1Cl)NC1(CCOCC1)C(NCc1ccccc1)=N2 [O/S-339] | < 20 nM | < 200 nM | < 50 nM | 20000 to 50000 nM | – | –
c1ccc(CNC2=Nc3ccccc3NC23CCSCC3)cc1 [O/S-338] | < 500 nM | < 5000 nM | < 1000 nM | 50000 to 100000 nM | – | –
